Measurements as given in ChEMBL document CHEMBL1201862, “PubChem BioAssay data set” (2004).
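Tested at 5 concentrations; 48 h exposure; 96-well plates; endpoints linearly interpolated, else capped at highest concentration. Here, GI50 denotes the concentration required for 50% inhibition of growth.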 Activity calls are given as the source filed them. No stated cut-off is given here; in the data, active = GI50 up to about 1.1 µM and inactive = higher.

Legend:
Assay in all cases: NCI tumour cell line growth inhibition, 48 h
786-0 = system: 786-0
ACHN = system: ACHN
BT-549 = system: BT-549
HOP-62 = system: HOP-62
HT-29 = system: HT-29
K562 = system: K562
KM12 = system: KM12
MCF7 = system: MCF7
MDA-MB-435 = system: MDA-MB-435
MDA-N = system: MDA-N
NCI-H460 = system: NCI-H460
NCI/ADR-RES = system: NCI/ADR-RES
OVCAR-3 = system: OVCAR-3
OVCAR-4 = system: OVCAR-4
OVCAR-5 = system: OVCAR-5
SF-295 = system: SF-295
SK-MEL-28 = system: SK-MEL-28
SK-MEL-2 = system: SK-MEL-2
SK-OV-3 = system: SK-OV-3
SNB-19 = system: SNB-19

Row | SMILES | GI50 (786-0) | GI50 (ACHN) | GI50 (BT-549) | GI50 (HOP-62) | GI50 (HT-29) | GI50 (K562) | GI50 (KM12) | GI50 (MCF7) | GI50 (MDA-MB-435) | GI50 (MDA-N) | GI50 (NCI-H460) | GI50 (NCI/ADR-RES) | GI50 (OVCAR-3) | GI50 (OVCAR-4) | GI50 (OVCAR-5) | GI50 (SF-295) | GI50 (SK-MEL-28) | GI50 (SK-MEL-2) | GI50 (SK-OV-3) | GI50 (SNB-19)
1 | O=C(O)c1ccc(N2C=[N+]3C(=Nc4ccccc43)C2)cc1 | > 100 µM (inactive) | > 100 µM (inactive) | > 100 µM (inactive) | > 100 µM (inactive) | > 100 µM (inactive) | > 100 µM (inactive) | > 100 µM (inactive) | > 100 µM (inactive) | > 100 µM (inactive) | > 100 µM (inactive) | > 100 µM (inactive) | > 100 µM (inactive) | > 100 µM (inactive) | > 100 µM (inactive) | > 100 µM (inactive) | > 100 µM (inactive) | > 100 µM (inactive) | > 100 µM (inactive) | > 100 µM (inactive) | > 100 µM (inactive)
2 | CS(=O)(=O)OCCN(CCOS(C)(=O)=O)c1ccc(/C=N/c2ccc3oc(=O)ccc3c2)cc1 | 0.321 µM (active) | 0.492 µM (active) | 10.5 µM (inactive) | 1.89 µM (inactive) | 5.66 µM (inactive) | 24.6 µM (inactive) | 8.41 µM (inactive) | 3.59 µM (inactive) | 11.1 µM (inactive) | 10.9 µM (inactive) | 0.0313 µM (active) | 8.59 µM (inactive) | 3.58 µM (inactive) | 11.7 µM (inactive) | 3.24 µM (inactive) | 0.933 µM (active) | 12.9 µM (inactive) | 15.8 µM (inactive) | 1.11 µM (active) | 8.97 µM (inactive)
3 | O=[N+]([O-])/C(C(Cl)=C(Cl)Cl)=C(/Sc1ccccc1)N1CCOCC1 | 2.28 µM (inactive) | 4.82 µM (inactive) | 4.76 µM (inactive) | 17.5 µM (inactive) | 6.15 µM (inactive) | 1.74 µM (inactive) | 13.4 µM (inactive) | 2.57 µM (inactive) | 2.59 µM (inactive) | 3.65 µM (inactive) | 5.05 µM (inactive) | 6.28 µM (inactive) | 2.69 µM (inactive) | 11.6 µM (inactive) | 16.4 µM (inactive) | 19.5 µM (inactive) | 4.74 µM (inactive) | 5.14 µM (inactive) | 34.8 µM (inactive) | 6.75 µM (inactive)
